Test results reported in PubChem BioAssay AID1259407 (Chemical Carcinogenesis Research Information System (CCRIS), 2018).
Active and inactive are the calls of the source. No rule for the calls is given here. Where a SMILES comes first, the peptide text is derived from it.

Test system: CCRIS mutagenicity, Ames/micronucleus/aberration tests
Assay: CCRIS mutagenicity studies
[1] = Test System: AMES SALMONELLA TYPHIMURIUM, Strain/Indicator: TA98, Metabolic Activation: NONE, Method: PREINCUBATION
[2] = Test System: AMES SALMONELLA TYPHIMURIUM, Strain/Indicator: TA102, Metabolic Activation: NONE, Method: PREINCUBATION
[3] = Test System: AMES SALMONELLA TYPHIMURIUM, Strain/Indicator: TA98, Metabolic Activation: NONE, Method: STANDARD PLATE
[4] = Test System: AMES SALMONELLA TYPHIMURIUM, Strain/Indicator: TA100, Metabolic Activation: NONE, Method: STANDARD PLATE
[5] = Test System: AMES SALMONELLA TYPHIMURIUM, Strain/Indicator: TA100, Metabolic Activation: RAT, LIVER, S-9, AROCLOR 1254, Method: STANDARD PLATE
[6] = Test System: AMES SALMONELLA TYPHIMURIUM, Strain/Indicator: TA102, Metabolic Activation: NONE, Method: STANDARD PLATE
[7] = Test System: AMES SALMONELLA TYPHIMURIUM, Strain/Indicator: TA102, Metabolic Activation: RAT, LIVER, S-9, AROCLOR 1254, Method: STANDARD PLATE
[8] = Test System: AMES SALMONELLA TYPHIMURIUM, Strain/Indicator: TA98, Metabolic Activation: RAT, LIVER, S-9, AROCLOR 1254, Method: STANDARD PLATE

Measured: mutagenic call

CCC(CO)[N+](=O)[O-] (stereo not drawn)
inactive: Test System: AMES SALMONELLA TYPHIMURIUM, Strain/Indicator: TA97, Metabolic Activation: HAMSTER, LIVER, S-9, AROCLOR 1254 (10%), Method: PREINCUBATION inactive; negative | Test System: AMES SALMONELLA TYPHIMURIUM, Strain/Indicator: TA97, Metabolic Activation: HAMSTER, LIVER, S-9, AROCLOR 1254 (30%), Method: PREINCUBATION inactive; negative | Test System: AMES SALMONELLA TYPHIMURIUM, Strain/Indicator: TA97, Metabolic Activation: NONE, Method: PREINCUBATION inactive; negative | Test System: AMES SALMONELLA TYPHIMURIUM, Strain/Indicator: TA97, Metabolic Activation: RAT, LIVER, S-9, AROCLOR 1254 (10%), Method: PREINCUBATION inactive; negative | Test System: AMES SALMONELLA TYPHIMURIUM, Strain/Indicator: TA97, Metabolic Activation: RAT, LIVER, S-9, AROCLOR 1254 (30%), Method: PREINCUBATION inactive; negative | Test System: AMES SALMONELLA TYPHIMURIUM, Strain/Indicator: TA98, Metabolic Activation: HAMSTER, LIVER, S-9, AROCLOR 1254 (10%), Method: PREINCUBATION inactive; negative | Test System: AMES SALMONELLA TYPHIMURIUM, Strain/Indicator: TA98, Metabolic Activation: HAMSTER, LIVER, S-9, AROCLOR 1254 (30%), Method: PREINCUBATION inactive; negative | [1] inactive; negative | Test System: AMES SALMONELLA TYPHIMURIUM, Strain/Indicator: TA98, Metabolic Activation: RAT, LIVER, S-9, AROCLOR 1254 (10%), Method: PREINCUBATION inactive; negative | Test System: AMES SALMONELLA TYPHIMURIUM, Strain/Indicator: TA98, Metabolic Activation: RAT, LIVER, S-9, AROCLOR 1254 (30%), Method: PREINCUBATION inactive; negative | Test System: AMES SALMONELLA TYPHIMURIUM, Strain/Indicator: TA98, Metabolic Activation: RAT, LIVER, S-9, AROCLOR, Method: PREINCUBATION inactive; negative | Test System: AMES SALMONELLA TYPHIMURIUM, Strain/Indicator: TA100, Metabolic Activation: HAMSTER, LIVER, S-9, AROCLOR 1254 (10%), Method: PREINCUBATION inactive; negative | Test System: AMES SALMONELLA TYPHIMURIUM, Strain/Indicator: TA100, Metabolic Activation: HAMSTER, LIVER, S-9, AROCLOR 1254 (30%), Method: PREINCUBATION inactive; negative | Test System: AMES SALMONELLA TYPHIMURIUM, Strain/Indicator: TA100, Metabolic Activation: NONE, Method: PREINCUBATION inactive; negative | Test System: AMES SALMONELLA TYPHIMURIUM, Strain/Indicator: TA100, Metabolic Activation: RAT, LIVER, S-9, AROCLOR 1254 (10%), Method: PREINCUBATION inactive; negative | Test System: AMES SALMONELLA TYPHIMURIUM, Strain/Indicator: TA100, Metabolic Activation: RAT, LIVER, S-9, AROCLOR 1254 (30%), Method: PREINCUBATION inactive; negative | Test System: AMES SALMONELLA TYPHIMURIUM, Strain/Indicator: TA100, Metabolic Activation: RAT, LIVER, S-9, AROCLOR, Method: PREINCUBATION inactive; negative | [2] inactive; negative | Test System: AMES SALMONELLA TYPHIMURIUM, Strain/Indicator: TA102, Metabolic Activation: RAT, LIVER, S-9, AROCLOR, Method: PREINCUBATION inactive; negative | Test System: AMES SALMONELLA TYPHIMURIUM, Strain/Indicator: TA1535, Metabolic Activation: HAMSTER, LIVER, S-9, AROCLOR 1254 (10%), Method: PREINCUBATION inactive; negative | Test System: AMES SALMONELLA TYPHIMURIUM, Strain/Indicator: TA1535, Metabolic Activation: HAMSTER, LIVER, S-9, AROCLOR 1254 (30%), Method: PREINCUBATION inactive; negative | Test System: AMES SALMONELLA TYPHIMURIUM, Strain/Indicator: TA1535, Metabolic Activation: NONE, Method: PREINCUBATION inactive; negative | Test System: AMES SALMONELLA TYPHIMURIUM, Strain/Indicator: TA1535, Metabolic Activation: RAT, LIVER, S-9, AROCLOR 1254 (10%), Method: PREINCUBATION inactive; negative | Test System: AMES SALMONELLA TYPHIMURIUM, Strain/Indicator: TA1535, Metabolic Activation: RAT, LIVER, S-9, AROCLOR 1254 (30%), Method: PREINCUBATION inactive; negative | Test System: AMES SALMONELLA TYPHIMURIUM, Strain/Indicator: TA1537, Metabolic Activation: HAMSTER, LIVER, S-9, AROCLOR 1254 (30%), Method: PREINCUBATION inactive; negative | Test System: AMES SALMONELLA TYPHIMURIUM, Strain/Indicator: TA1537, Metabolic Activation: NONE, Method: PREINCUBATION inactive; negative | Test System: AMES SALMONELLA TYPHIMURIUM, Strain/Indicator: TA1537, Metabolic Activation: RAT, LIVER, S-9, AROCLOR 1254 (30%), Method: PREINCUBATION inactive; negative

CC(=O)O[C@H]1CC[C@]2(C)[C@H]3CC[C@]4(C)[C@@H]([C@H](C)CCCC(C)C)CC[C@H]4[C@@H]3C[C@@H]3N(N4C(=O)c5ccccc5C4=O)[C@@]32C1 (stereo partly drawn)
inactive: [6] inactive; negative
active: Test System: AMES SALMONELLA TYPHIMURIUM, Strain/Indicator: TA97A, Metabolic Activation: NONE, Method: STANDARD PLATE active; positive | Test System: AMES SALMONELLA TYPHIMURIUM, Strain/Indicator: TA97A, Metabolic Activation: RAT, LIVER, S-9, AROCLOR 1254, Method: STANDARD PLATE active; positive | [3] active; positive | [4] active; positive | [5] active; positive | [7] active; positive | Test System: AMES SALMONELLA TYPHIMURIUM, Strain/Indicator: TA104, Metabolic Activation: NONE, Method: STANDARD PLATE active; positive | Test System: AMES SALMONELLA TYPHIMURIUM, Strain/Indicator: TA104, Metabolic Activation: RAT, LIVER, S-9, AROCLOR 1254, Method: STANDARD PLATE active; positive

Cc1cccnc1
inactive: Test System: AMES SALMONELLA TYPHIMURIUM, Strain/Indicator: TA97, Metabolic Activation: NONE, Method: STANDARD PLATE inactive; negative | Test System: AMES SALMONELLA TYPHIMURIUM, Strain/Indicator: TA97, Metabolic Activation: RAT, LIVER, S-9, AROCLOR 1254, Method: STANDARD PLATE inactive; negative | [3] inactive; negative | [8] inactive; negative | [4] inactive; negative | [5] inactive; negative | [6] inactive; negative | [7] inactive; negative

CCOC(=O)CN=[N+]=[N-]
active: Test System: AMES SALMONELLA TYPHIMURIUM, Strain/Indicator: TA1530, Metabolic Activation: NONE, Method: STANDARD PLATE active; positive

CC(C)C[C@H](NC(=O)[C@H](Cc1ccccc1)NC(=O)CNC(=O)CN)C(=O)O (H-GGFL-OH)
inactive: [3] inactive; negative | [8] inactive; negative | [4] inactive; negative | [5] inactive; negative | Test System: AMES SALMONELLA TYPHIMURIUM, Strain/Indicator: TA1535, Metabolic Activation: NONE, Method: STANDARD PLATE inactive; negative | Test System: AMES SALMONELLA TYPHIMURIUM, Strain/Indicator: TA1535, Metabolic Activation: RAT, LIVER, S-9, AROCLOR 1254, Method: STANDARD PLATE inactive; negative | Test System: AMES SALMONELLA TYPHIMURIUM, Strain/Indicator: TA1537, Metabolic Activation: NONE, Method: STANDARD PLATE inactive; negative | Test System: AMES SALMONELLA TYPHIMURIUM, Strain/Indicator: TA1537, Metabolic Activation: RAT, LIVER, S-9, AROCLOR 1254, Method: STANDARD PLATE inactive; negative

CCCCCCCCCCCCCC(=O)ON(C(=O)CCCCCCCCCCCCC)c1ccc2c(c1)Cc1ccccc1-2
active: Test System: UDS HUMAN FIBROBLASTS, Strain/Indicator: THY INCORP (NON-S-PHASE), Metabolic Activation: NONE, Method: AUTORADIOGRAPHY active; positive

CC(=O)N=C1C=CC(=O)C=C1
inactive: [1] inactive; negative | [2] inactive; negative | Test System: UDS MOUSE HEPATOCYTES, Strain/Indicator: THY INCORP (NON-S-PHASE), Metabolic Activation: NONE, Method: LIQUID SCINTILLATION COUNTING inactive; negative

O=C1c2ccccc2-c2c1ccc1ccc3ccccc3c21
inactive: [5] inactive; negative
